Source: patent US12385058B2, “Herbicide tolerance protein, encoding gene thereof and use thereof” (Beijing Dabeinong Biotechnology Co., Ltd., priority 2018, dated 2025)

Test system: maize plants
Assay: Herbicide tolerance of transgenic maize T1 plants (spraying, damage degree)
Type: in vivo
Details: 144 g ai/ha (8x Tri.)
Protocol: The degree of damage caused by the herbicide was measured for each plant according to the plant growth status 3 days after spraying (3 DAT), 7 days after spraying (7 DAT), 14 days after spraying (14 DAT) and 21 days after spraying (21 DAT): a growth status equivalent to that of the untreated plants is defined as having a damage degree of 0%; the case where leaves are locally chlorotic and yellow but the normal plant growth is substantially not affected is defined as having a damage degree of 50%; and the case where the whole plant is purple and dying is defined as having a damage degree of 100%. The maize plants into which the ALT02M1-02 nucleotide sequence was introduced were of three strains in total (S15, S16 and S17), the maize plants into which the ALT02M2-02 nucleotide sequence was introduced were of three strains in total (S18, S19 and S20), the maize plants into which the ALT02M3-02 nucleotide sequence was introduced were of three strains in total (S21, S22 and S23), the maize plants into which the ALT02-02 nucleotide sequence was introduced were of three strains in total (S24, S25 and S26), the control maize plants were of two strains in total (S27 and S28), and the wild-type maize plants were of one strain in total (CK2); and 10-15 plants were selected from each strain and tested.

[1] = maize genotype CK2 (wild-type maize plants)
[2] = maize genotype S15 (ALT02M1-02 introduced)
[3] = maize genotype S16 (ALT02M1-02 introduced)
[4] = maize genotype S17 (ALT02M1-02 introduced)
[5] = maize genotype S18 (ALT02M2-02 introduced)
[6] = maize genotype S19 (ALT02M2-02 introduced)
[7] = maize genotype S20 (ALT02M2-02 introduced)
[8] = maize genotype S21 (ALT02M3-02 introduced)
[9] = maize genotype S22 (ALT02M3-02 introduced)
[10] = maize genotype S23 (ALT02M3-02 introduced)
[11] = maize genotype S24 (ALT02-02 introduced)
[12] = maize genotype S25 (ALT02-02 introduced)
[13] = maize genotype S26 (ALT02-02 introduced)
[14] = maize genotype S27 (control maize plants, DBN100830N)
[15] = maize genotype S28 (control maize plants, DBN100830N)

methyl 2-[N-(4-methoxy-6-methyl-1,3,5-triazin-2-yl)-N-methylcarbamoylaminosulfonyl]benzoate [tribenuron-methyl]
Average damage % 3DAT [1]: 46%
Average damage % 7DAT [1]: 86%
Average damage % 14DAT [1]: 100%
Average damage % 21DAT [1]: 100%
Average damage % 3DAT [2]: 5%
Average damage % 7DAT [2]: 0%
Average damage % 14DAT [2]: 0%
Average damage % 21DAT [2]: 0%
Average damage % 3DAT [3]: 6%
Average damage % 7DAT [3]: 0%
Average damage % 14DAT [3]: 0%
Average damage % 21DAT [3]: 0%
Average damage % 3DAT [4]: 3%
Average damage % 7DAT [4]: 0%
Average damage % 14DAT [4]: 0%
Average damage % 21DAT [4]: 0%
Average damage % 3DAT [5]: 0%
Average damage % 7DAT [5]: 0%
Average damage % 14DAT [5]: 0%
Average damage % 21DAT [5]: 0%
Average damage % 3DAT [6]: 0%
Average damage % 7DAT [6]: 0%
Average damage % 14DAT [6]: 0%
Average damage % 21DAT [6]: 0%
Average damage % 3DAT [7]: 0%
Average damage % 7DAT [7]: 0%
Average damage % 14DAT [7]: 0%
Average damage % 21DAT [7]: 0%
Average damage % 3DAT [8]: 3%
Average damage % 7DAT [8]: 0%
Average damage % 14DAT [8]: 0%
Average damage % 21DAT [8]: 0%
Average damage % 3DAT [9]: 2%
Average damage % 7DAT [9]: 0%
Average damage % 14DAT [9]: 0%
Average damage % 21DAT [9]: 0%
Average damage % 3DAT [10]: 0%
Average damage % 7DAT [10]: 0%
Average damage % 14DAT [10]: 0%
Average damage % 21DAT [10]: 0%
Average damage % 3DAT [11]: 14%
Average damage % 7DAT [11]: 5%
Average damage % 14DAT [11]: 0%
Average damage % 21DAT [11]: 0%
Average damage % 7DAT [12]: 4%
Average damage % 14DAT [12]: 0%
Average damage % 21DAT [12]: 0%
Average damage % 3DAT [13]: 20%
Average damage % 7DAT [13]: 7%
Average damage % 14DAT [13]: 0%
Average damage % 21DAT [13]: 0%
Average damage % 3DAT [14]: 61%
Average damage % 7DAT [14]: 82%
Average damage % 14DAT [14]: 100%
Average damage % 21DAT [14]: 100%
Average damage % 3DAT [15]: 53%
Average damage % 7DAT [15]: 78%
Average damage % 14DAT [15]: 100%
Average damage % 21DAT [15]: 100%
